Measurements as given in US7855196B2 (priority 2005, dated 2010).
Like-named read-outs stand apart in the source and are kept apart here.

Experiments:
[1] = Sedation / side effects observed in treated patients (clinical case examples)

**Q.** What does the source list for `Cc1ncc2n1-c1ccc(Cl)cc1C(c1ccccc1F)=NC2` [midazolam]?
**A.** improvement of pain (human, in vivo, iv): 40%; level of pain after treatment (human, in vivo, iv): 3/10; pain level after treatment (human, in vivo, iv): 0/10; pain rating after treatment (human, in vivo, iv): 3/10; sedation ([1]; Example 2: midazolam 2 mg iv): experienced sedation; sedation ([1]; Example 5: midazolam 2 mg iv): did not present any signs of sedation

**Q.** Which “low back pain after injection” value (Example 3: phantom-like pain, patient on alprazolam 6 mg a day, flumazenil 100 μg, 5 minutes after injection, before 7/10) does the source give for `CCOC(=O)c1ncn2c1CN(C)C(=O)c1cc(F)ccc1-2` [flumazenil] here?
**A.** The value was 5/10.

**Q.** And the “effect on midazolam response to pain” value (Example 4: flumazenil 200 μg iv 5 minutes after midazolam 2 mg iv (ratio 10:1))?
**A.** Its value is “without altering the midazolam response to pain”.

**Q.** And the pain after treatment (Example 5: flumazenil 200 μg iv after midazolam 2 mg iv, before 3/10)?
**A.** Its pain after treatment is “pain disappeared”.

**Q.** And the “pain 25 minutes after treatment” value (Example 8: further flumazenil 300 μg iv after midazolam 5 mg and flumazenil 500 μg, 25 minutes after treatment)?
**A.** Its value is 4/10.

**Q.** And the “pain rating after treatment” value (Example 8: further flumazenil 300 μg iv ten minutes later, after 5 minutes, before 5/10)?
**A.** The value was 3/10.

**Q.** What about the “pain level while moving arm” value (human, in vivo, iv) of the same compound?
**A.** The value was 1/10.

**Q.** Which results are given for `Cc1nnc2n1-c1ccc(Cl)cc1C(c1ccccc1)=NC2` [alprazolam, 8-chloro-1-methyl-6-phenyl-4H-s-triazolo[4,3-a][1,4] benzodiazepine]?
**A.** pain rating after treatment (human, in vivo): 4/10; pain remission (human, in vivo): increased period of pain remission; pain response (human, in vivo): sustained results; sedation limiting augmentation of dosage ([1]; Example 1: alprazolam 0.5 mg TID and 2 mg HS): severe patient sedation; sedation limiting augmentation of dosage ([1]; Example 2: alprazolam 0.25 mg QID): severe sedation; side effects ([1]; Example 8: alprazolam 5 mg/day): experienced alprazolam side effects
